Laboratory results published in PMC8948984, “Diversified Chaetoglobosins from the Marine-Derived Fungus Emericellopsis sp. SCSIO41202” (Molecules, 2022).
Read-outs that look alike come from different tables or passages of the source.

Key:
[1] = target: acetylcholinesterase (AChE) (Homo sapiens, UniProt P22303); assay: biochemical
Description: The inhibitory effects of 4–13 on AChE were measured in vitro in 96-well plates as previously described.

PC-3 cells = assay: CCK-8 cytotoxicity assay, PC-3 cells; format: cell-based
Description: Compounds 4–13 were tested for their cytotoxicity against two prostatic carcinoma cell lines, PC-3 and 22Rv1, according to the reported CCK-8 (Dojindo) method. In brief, cells were seeded in a 96-well plate at the appropriate cell concentration and then incubated for 24 h at 37 °C in a 100% relative humidity, 5% CO2 incubator. Compounds to be tested were diluted to the appropriate concentration with culture medium, and the amount of each compound was adjusted to 25 μL before adding to the cells. Docetaxel (S1148, Selleck) was used as a positive control. The medium was aspirated, a fresh complete medium with 10% CCK-8 was added to incubate in a 37 °C incubator for 2-4 h, and the absorbance of the soultion at 450 nm was measured by an Envision 2104 multilabel reader (PerkinElmer). The inhibition rate was calculated by taking the absorbance at 650 nm as a reference.

[2] = in vitro, 96-well plates, read-out: AChE inhibitory activity IC50

Chain of acetylcholinesterase (AChE) (P22303 32-614, species assumed): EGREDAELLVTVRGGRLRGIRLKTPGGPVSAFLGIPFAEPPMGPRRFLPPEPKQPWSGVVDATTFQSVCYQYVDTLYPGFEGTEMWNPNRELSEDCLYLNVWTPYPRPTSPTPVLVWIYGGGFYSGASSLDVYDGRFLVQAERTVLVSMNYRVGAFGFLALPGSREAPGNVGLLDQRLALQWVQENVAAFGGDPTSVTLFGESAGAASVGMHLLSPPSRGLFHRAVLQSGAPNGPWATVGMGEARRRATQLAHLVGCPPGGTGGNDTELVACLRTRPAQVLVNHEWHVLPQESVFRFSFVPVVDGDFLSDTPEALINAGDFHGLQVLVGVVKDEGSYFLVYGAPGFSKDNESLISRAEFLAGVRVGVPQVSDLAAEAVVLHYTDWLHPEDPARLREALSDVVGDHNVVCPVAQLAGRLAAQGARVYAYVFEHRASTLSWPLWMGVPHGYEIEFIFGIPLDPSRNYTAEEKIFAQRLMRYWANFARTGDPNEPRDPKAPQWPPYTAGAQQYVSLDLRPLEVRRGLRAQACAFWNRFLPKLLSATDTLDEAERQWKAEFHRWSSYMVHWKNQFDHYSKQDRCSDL

SMILES | IC50 [1, 2] [µM] | IC50 [1] [µM] | also measured
CC1=C(C)[C@H]2[C@H](Cc3c[nH]c4ccccc34)NC(=O)[C@]23C(=O)CC[C@H](O)C(=O)/C(C)=C/[C@@H](C)C/C=C/[C@H]3[C@@H]1O [Compound 4, chaetoglobosin E] | 4.15 |  | 
CC1=C(C)[C@H]2[C@H](Cc3c[nH]c4ccccc34)NC(=O)[C@]23C(=O)CCC(=O)C(=O)/C(C)=C/[C@@H](C)C/C=C/[C@H]3[C@@H]1O [Compound 6, chaetoglobosin G] |  | 8.71 | 
CC1=C(O)C(=O)[C@@H]2CC(=O)[C@@]34C(=O)N[C@@H](Cc5c[nH]c6ccccc56)[C@@H]3C(C)=C(C)[C@@H](O)[C@@H]4/C=C/C[C@H](C)[C@@H]12 [Compound 9, chaetoglobosin Vb] | 23.7 |  | 
CC(=O)O[C@@]12CO[C@@H]1C[C@H](O)[C@@]1(C)C(=O)[C@H](O)C3=C(C)[C@@H](OC(=O)[C@H](O)[C@@H](NC(=O)OC(C)(C)C)c4ccccc4)C[C@@](O)([C@@H](OC(=O)c4ccccc4)[C@H]21)C3(C)C [docetaxel, reference compound] |  |  | IC50 (PC-3 cells; Homo sapiens, prostatic carcinoma cell line PC-3, CCK-8, triplicate, read-out: IC50 against PC-3 cells): 0.12 µM
CC1=C(O)C(=O)[C@H]2CC(=O)[C@@]34C(=O)N[C@@H](Cc5c[nH]c6ccccc56)[C@@H]3C(C)=C(C)[C@@H](O)[C@@H]4/C=C/C[C@H](C)[C@H]12 [Compound 8, chaetoglobosin V] | 1.31 |  | 
C=C1[C@@H](C)[C@H]2[C@H](Cc3c[nH]c4ccccc34)NC(=O)[C@]23C(=O)CC[C@H](O)C(=O)/C(C)=C/[C@@H](C)C/C=C/[C@H]3[C@@H]1O [Compound 5, chaetoglobosin Fex] |  | 31.7 | IC50 (PC-3 cells; Homo sapiens, PC-3, read-out: IC50 against PC-3 cells, prostatic carcinoma cell line PC-3, CCK-8, triplicate): 2.32 µM; IC50 (PC-3 cells; read-out: IC50 against PC-3 cells, prostatic carcinoma cell line PC-3, CCK-8, triplicate, listed as C5): 2.32 µM
